Tested on: HBMEC (Human Brain Microvascular Endothelial Cell)
Test: Nitric oxide production in HBMEC, gintonin pretreatment before NOS inhibitor
Assay type: cell-based
Settings: 100 uM synthase inhibitor, 1 h, vs DMSO only
Description: First of all, HBMEC (Human Brain Microvascular Endothelial Cell) or imHBMEC (immortalized Human Brain Microvascular Endothelial Cell) were cultured in an appropriate culture medium under air conditions of 37° C., 5% carbon dioxide and 95% relative humidity. When the cells reached 80 to 90% confluency (average ~2 days), 10 ug/mL of gintonin was first pretreated and incubated for 1 hour, and then, a nitric oxide synthase (NOS) inhibitor was treated and incubated for another hour, then, the effect of changes in nitric oxide (NO) production was investigated. Afterwards, the concentration of nitric oxide synthase inhibitor was treated at 100 and 300 uM.

COC(=O)[C@@H](N)CCCNC(=N)N[N+](=O)[O-].Cl [synthase inhibitor]
reduction of nitric oxide (relative production): about 20%

— patent publication US20260216280A1, “COMPOSITION FOR PREVENTING AND TREATING ISCHEMIC CEREBROVASCULAR DISEASE COMPRISING GINTONIN” (Dongguk University Industry-Academic Cooperation Foundation, priority 2022, published 2026)
